This is an account of results in patent US9247746B2, “Fungicidal substituted 1-{2-cyclyloxy-2-[2-halo-4-(4-halogen-phenoxy)-phenyl]-ethyl}-1H-[1,2,4]triazole compounds” (BASF SE, priority 2011, dated 2016).

Experiment [1] relates to Septoria tritici. The experiment in a line: Preventative control of leaf blotch on wheat (Septtr P7), green house. To be noted: inoculated 7 days after spraying, untreated control 90. It is filed as in vivo. Here is the method:
The spray solutions were prepared in several steps: The stock solution were prepared: a mixture of acetone and/or dimethylsulfoxide and the wetting agent/emulsifier Wettol, which is based on ethoxylated alkylphenoles, in a relation (volume) solvent-emulsifier of 99 to 1 was added to 25 mg of the compound to give a total of 5 ml. Water was then added to total volume of 100 ml. This stock solution was diluted with the described solvent-emulsifier-water mixture to the given concentration. G1. Preventative Control of Brown Rust on Wheat Caused by Puccinia recondita (Puccrt P1) G3. Preventative Control of Leaf Blotch on Wheat Caused by Septoria tritici (Septtr P7) Leaves of pot-grown wheat seedling were sprayed to run-off with an aqueous suspension of the active compound or their mixture, prepared as described. The plants were allowed to air-dry. Seven days later the plants were inoculated with an aqueous spore suspension of Septoria tritici. Then the trial plants were immediately transferred to a humid chamber at 18-22° C. and a relative humidity close to 100%. After 4 days the plants were transferred to a chamber with 18-22° C. and a relative humidity close to 70%. After 4 weeks the extent of fungal attack on the leaves was visually assessed as % diseased leaf area.

For experiment [2], the system named is Septoria tritici. Description: Microtest: activity against leaf blotch on wheat (Septtr). It is filed as cell-based. Here is the method: The active compounds were formulated separately as a stock solution having a concentration of 10000 ppm in dimethyl sulfoxide. M2. Activity Against Leaf Blotch on Wheat Caused by Septoria tritici(Septtr) The stock solutions were mixed according to the ratio, pipetted onto a micro titer plate (MTP) and diluted with water to the stated concentrations. A spore suspension of Septoria tritici in an aqueous biomalt or yeast-bactopeptone-glycerine solution was then added. The plates were placed in a water vapor-saturated chamber at a temperature of 18° C. Using an absorption photometer, the MTPs were measured at 405 nm 7 days after the inoculation.

The next experiment has as its system Phakopsora pachyrhizi. The experiment in a line: Protective control of soy bean rust on soy beans (Phakpa P2), green house. It is filed as in vivo. To be noted: inoculated 2 days after spraying, untreated control 90. The method, then:
The spray solutions were prepared in several steps:
The stock solution were prepared: a mixture of acetone and/or dimethylsulfoxide and the wetting agent/emulsifier Wettol, which is based on ethoxylated alkylphenoles, in a relation (volume) solvent-emulsifier of 99 to 1 was added to 25 mg of the compound to give a total of 5 ml. Water was then added to total volume of 100 ml. This stock solution was diluted with the described solvent-emulsifier-water mixture to the given concentration. G1. Preventative Control of Brown Rust on Wheat Caused by Puccinia recondita (Puccrt P1)
G4. Protective Control of Soy Bean Rust on Soy Beans Caused by Phakopsora pachyrhizi (Phakpa P2)
Leaves of pot-grown soy bean seedlings were sprayed to run-off with an aqueous suspension, containing the concentration of active ingredient or their mixture as described below. The plants were allowed to air-dry. The trial plants were cultivated for 2 days in a greenhouse chamber at 23-27° C. and a relative humidity between 60 and 80%. Then the plants were inoculated with spores of Phakopsora pachyrhizi. To ensure the success the artificial inoculation, the plants were transferred to a humid chamber with a relative humidity of about 95% and 20 to 24° C. for 24 h. […] The extent of fungal attack on the leaves was visually assessed as % diseased leaf area.

For `COC(C)(Cn1cncn1)c1ccc(Oc2ccc(Cl)cc2)cc1Cl` (stereo not shown), the “Disease (%) at 16 ppm Septtr P7” value in the experiment on Septoria tritici [1] is recorded as 80%. Also, the “Growth (%) at 0.00012 ppm Septtr” value with Septoria tritici [2] came to 63%.
Consider `CCC(Cn1cncn1)(OC)c1ccc(Oc2ccc(Cl)cc2)cc1Cl` (stereo not shown), for which, in the experiment on Phakopsora pachyrhizi, the “Disease (%) at 63 ppm Phakpa P2” value came to 60%.
Turning to `CC(Cn1cncn1)(OCc1ccccc1)c1ccc(Oc2ccc(Cl)cc2)cc1Cl` (stereo not shown) [I-1, 1-[2-benzyloxy-2-[2-chloro-4-(4-chlorophenoxy)phenyl]propyl]-1,2,4-triazole], in the experiment with Septoria tritici [2], the “Growth (%) at 0.00012 ppm Septtr” value is 23%.
